Measurements taken from PMC5920526 (ACS catalysis, 2017).

How the values were obtained:
SpNanC [1] = experiment: Substrate specificity of SpNanC with pNP-tagged α2–3-linked sialosides; assay type: biochemical, Streptococcus pneumoniae; conditions: for Percentage conversion: sialoside as substrate of SpNanC; for yield of cleavage by SpNanC: reactions using 3 μg of SpNanC
SpNanC [2] = experiment: Sialidase inhibition, Neu5Acα2–3GalβpNP as substrate; assay type: biochemical, Streptococcus pneumoniae; conditions: 0.1 mM inhibitor
PmST1 = PmST1 (Pasteurella multocida, UniProt Q15KI8); assay type: biochemical; conditions: 0.1 mM inhibitor
[3] = biological target: human cytosolic sialidase hNEU2 (Homo sapiens, UniProt Q9Y3R4); experiment: Sialidase inhibition, Neu5Acα2–3GalβpNP as substrate; assay type: biochemical; conditions: 0.1 mM inhibitor
SpNanB = SpNanB (Streptococcus pneumoniae serotype 4, UniProt Q54727); experiment: as above; assay type: biochemical; conditions: 0.1 mM inhibitor
CpNanH = CpNanH (Clostridium perfringens, UniProt P10481); assay type: biochemical
VcSialidase = VcSialidase (Vibrio cholerae serotype O1, UniProt P0C6E9); experiment: biochemical
AuSialidase = AuSialidase (Paenarthrobacter ureafaciens, UniProt Q5W7Q2); experiment: Sialidase inhibition, Neu5Acα2–3GalβpNP as substrate; assay type: biochemical, Arthrobacter ureafaciens; conditions: 0.1 mM inhibitor
BiNanH2 = BiNanH2 (Bifidobacterium longum subsp. infantis, UniProt A0ACD7UU12); experiment: as above; assay type: biochemical; conditions: read-out: IC50 against BiNanH2; Neu5Acα2–3GalβpNP as substrate
SpNanA = SpNanA (Streptococcus pneumoniae, UniProt P62575); experiment: biochemical; conditions: read-out: IC50 against SpNanA; Neu5Acα2–3GalβpNP as substrate

| SMILES | Percentage conversion (SpNanC [1]) [%] | further results |
| --- | --- | --- |
| O=C(O)[C@@]1(O[C@H]2[C@@H](O)[C@@H](CO)O[C@@H](Oc3ccc([N+](=O)[O-])cc3)[C@@H]2O)C[C@H](O)[C@@H](F)[C@H]([C@H](O)[C@H](O)CO)O1 [Kdn5Fα2–3GalβpNP] | 0.48 ± 0.00 | – |
| [N-]=[N+]=NC1C(O)CC(OC2C(O)C(CO)OC(Oc3ccc([N+](=O)[O-])cc3)C2O)(C(=O)O)OC1C(O)C(O)CO (stereo not drawn) [Kdn5N3α2–3GalβpNP] | 0.32 ± 0.45 | – |
| CO[C@H]1[C@H]([C@H](O)[C@H](O)CO)O[C@](O[C@H]2[C@@H](O)[C@@H](CO)O[C@@H](Oc3ccc([N+](=O)[O-])cc3)[C@@H]2O)(C(=O)O)C[C@@H]1O [Kdn5OMeα2–3GalβpNP] | 1.53 ± 1.02 | – |
| O=C(O)C1(OC2C(O)C(CO)OC(Oc3ccc([N+](=O)[O-])cc3)C2O)CC(O)CC(C(O)C(O)CO)O1 (stereo not shown) [Kdn5deoxyα2–3GalβpNP] | 5.31 ± 0.23 | – |
| O=C(O)[C@]1(O[C@H]2[C@@H](O)[C@@H](CO)O[C@@H](Oc3ccc([N+](=O)[O-])cc3)[C@@H]2O)C[C@H](O)[C@@H](O)[C@H]([C@H](F)[C@H](O)CO)O1 [Kdn7Fα2–3GalβpNP] | 0.56 ± 0.11 | – |
| [N-]=[N+]=NC(C(O)CO)C1OC(OC2C(O)C(CO)OC(Oc3ccc([N+](=O)[O-])cc3)C2O)(C(=O)O)CC(O)C1O (stereo not drawn) [Kdn7N3α2–3GalβpNP] | 4.50 ± 0.45 | – |
| CO[C@@H]([C@@H]1O[C@](O[C@H]2[C@@H](O)[C@@H](CO)O[C@@H](Oc3ccc([N+](=O)[O-])cc3)[C@@H]2O)(C(=O)O)C[C@H](O)[C@H]1O)[C@H](O)CO [Kdn7OMeα2–3GalβpNP] | 23.4 ± 3.3 | yield of cleavage by SpNanC (SpNanC [1]): 23% |
| O=C(O)C1(OC2C(O)C(CO)OC(Oc3ccc([N+](=O)[O-])cc3)C2O)CC(O)C(O)C(CC(O)CO)O1 (stereo not shown) [Kdn7deoxyα2–3GalβpNP] | 10.1 ± 0.0 | yield of cleavage by SpNanC (SpNanC [1]): 10% |
| O=C(O)C1(OC2C(O)C(CO)OC(Oc3ccc([N+](=O)[O-])cc3)C2O)CC(O)C(O)C(C(O)C(O)CF)O1 (stereo not shown) [Kdn9Fα2–3GalβpNP] | 3.70 ± 1.14 | – |
| COCC(O)C(O)C1OC(OC2C(O)C(CO)OC(Oc3ccc([N+](=O)[O-])cc3)C2O)(C(=O)O)CC(O)C1O (stereo not shown) [Kdn9OMeα2–3GalβpNP] | 4.02 ± 1.36 | – |
| O=C(O)[C@]1(O[C@H]2[C@@H](O)[C@@H](CO)O[C@@H](Oc3ccc([N+](=O)[O-])cc3)[C@@H]2O)C[C@H](O)[C@@H](O)[C@H]([C@H](O)[C@H](O)CO)O1 [Kdnα2–3GalβpNP] | 4.50 ± 0.45 | – |
| CC(=O)NC1C(O)CC(OC2C(O)C(CO)OC(Oc3ccc([N+](=O)[O-])cc3)C2O)(C(=O)O)OC1C(F)C(O)CO (stereo not shown) [Neu5Ac7Fα2–3GalβpNP] | 91.0 ± 4.3 | – |
| CC(=O)NC1C(O)CC(OC2C(O)C(CO)OC(Oc3ccc([N+](=O)[O-])cc3)C2O)(C(=O)O)OC1C(N=[N+]=[N-])C(O)CO (stereo not drawn) [Neu5Ac7N3α2–3GalβpNP] | 65.9 ± 1.1 | – |
| COC(C(O)CO)C1OC(OC2C(O)C(CO)OC(Oc3ccc([N+](=O)[O-])cc3)C2O)(C(=O)O)CC(O)C1NC(C)=O (stereo not shown) [Neu5Ac7OMeα2–3GalβpNP] | 96.5 ± 1.7 | – |
| CC(=O)N[C@H]1[C@H](C[C@H](O)CO)O[C@@](O[C@H]2[C@@H](O)[C@@H](CO)O[C@@H](Oc3ccc([N+](=O)[O-])cc3)[C@@H]2O)(C(=O)O)C[C@@H]1O [Neu5Ac7deoxyα2–3GalβpNP] | 91.2 ± 1.8 | – |
| CC(=O)N[C@H]1[C@H]([C@H](O)[C@H](O)CF)O[C@@](O[C@H]2[C@@H](O)[C@@H](CO)O[C@@H](Oc3ccc([N+](=O)[O-])cc3)[C@@H]2O)(C(=O)O)C[C@@H]1O [Neu5Ac9Fα2–3GalβpNP] | 75.6 ± 3.9 | – |
| COCC(O)C(O)C1OC(OC2C(O)C(CO)OC(Oc3ccc([N+](=O)[O-])cc3)C2O)(C(=O)O)CC(O)C1NC(C)=O (stereo not shown) [Neu5Ac9OMeα2–3GalβpNP] | 88.5 ± 5.1 | – |
| CC(=O)NC1C(O)CC(OC2C(O)C(CO)OC(Oc3ccc([N+](=O)[O-])cc3)C2O)(C(=O)O)OC1C(O)C(C)O (stereo not shown) [Neu5Ac9deoxyα2–3GalβpNP] | 93.5 ± 3.1 | – |
| O=C(CF)NC1C(O)CC(OC2C(O)C(CO)OC(Oc3ccc([N+](=O)[O-])cc3)C2O)(C(=O)O)OC1C(O)C(O)CO (stereo not shown) [Neu5AcFα2–3GalβpNP] | 74.8 ± 3.2 | – |
| [N-]=[N+]=NCC(=O)N[C@H]1[C@H]([C@H](O)[C@H](O)CO)O[C@@](O[C@H]2[C@@H](O)[C@@H](CO)O[C@@H](Oc3ccc([N+](=O)[O-])cc3)[C@@H]2O)(C(=O)O)C[C@@H]1O [Neu5AcN3α2–3GalβpNP] | 87.9 ± 1.6 | – |
| COCC(=O)NC1C(O)CC(OC2C(O)C(CO)OC(Oc3ccc([N+](=O)[O-])cc3)C2O)(C(=O)O)OC1C(O)C(O)CO (stereo not shown) [Neu5AcOMeα2–3GalβpNP] | 81.8 ± 1.7 | – |
| O=C(CO)NC1C(O)CC(OC2C(O)C(CO)OC(Oc3ccc([N+](=O)[O-])cc3)C2O)(C(=O)O)OC1C(O)C(O)CF (stereo not shown) [Neu5Gc9Fα2–3GalβpNP] | 72.3 ± 2.6 | – |
| [N-]=[N+]=NCC(O)C(O)C1OC(OC2C(O)C(CO)OC(Oc3ccc([N+](=O)[O-])cc3)C2O)(C(=O)O)CC(O)C1NC(=O)CO (stereo not drawn) [Neu5Gc9N3α2–3GalβpNP] | 89.5 ± 3.5 | – |
| COCC(O)C(O)C1OC(OC2C(O)C(CO)OC(Oc3ccc([N+](=O)[O-])cc3)C2O)(C(=O)O)CC(O)C1NC(=O)CO (stereo not shown) [Neu5Gc9OMeα2–3GalβpNP] | 75.0 ± 1.9 | – |
| C[C@@H](O)[C@@H](O)[C@@H]1O[C@@](O[C@H]2[C@@H](O)[C@@H](CO)O[C@@H](Oc3ccc([N+](=O)[O-])cc3)[C@@H]2O)(C(=O)O)C[C@H](O)[C@H]1NC(=O)CO [Neu5Gc9deoxyα2–3GalβpNP] | 85.5 ± 1.4 | – |
| O=C(CO)NC1C(O)CC(OC2C(O)C(CO)OC(Oc3ccc([N+](=O)[O-])cc3)C2O)(C(=O)O)OC1C(O)C(O)CO (stereo not shown) [Neu5Gcα2–3GalβpNP] | 80.6 ± 6.7 | – |
| O=C(CO)N[C@H]1[C@H]([C@H](O)[C@H](O)CO)OC(C(=O)O)=C[C@@H]1O [compound 7, 2,3-dehydro-2-deoxy-N-glycolylneuraminic acid] | – | inhibitory activity against SpNanC (in words) (SpNanC [2]): not effective inhibitors; inhibitory activity against PmST1 (in words) (PmST1): not effective inhibitors; inhibition against hNEU2 [3]: more than 50%; inhibitory activity against SpNanB (in words) (SpNanB): not effective inhibitors; inhibitory activity against CpNanH (in words) (CpNanH): not effective inhibitors; inhibition against VcSialidase (VcSialidase): more than 50% |
| CC(=O)NC[C@@H](O)[C@@H](O)C1OC(C(=O)O)=CC(O)[C@H]1NC(C)=O (stereo partly shown) [compound 9, Neu5Ac9NAc2en] | – | inhibitory activity against AuSialidase (in words) (AuSialidase): lowered the inhibitory activity; IC50 (BiNanH2): 33 ± 1 µM; IC50 (SpNanA): 11 ± 0.2 µM; inhibitory activity against SpNanC (in words) (SpNanC [2]): not effective inhibitors; inhibitory activity against PmST1 (in words) (PmST1): not effective inhibitors; inhibitory activity against hNEU2 (in words) [3]: lowered the inhibitory activity; inhibitory activity against SpNanB (in words) (SpNanB): not effective inhibitors; inhibitory activity against CpNanH (in words) (CpNanH): not effective inhibitors; inhibitory activity against VcSialidase (in words) (VcSialidase): lowered the inhibitory activity |
